System: S. aureus ATCC 29213
Assay: Time-kill experiments, aminoglycoside alone or with tomatidine (FIGS. 8-10)

Q: For `C[C@H]1CC[C@]2(NC1)O[C@H]1C[C@H]3[C@@H]4CC[C@H]5C[C@@H](O)CC[C@]5(C)[C@H]4CC[C@]3(C)[C@H]1[C@@H]2C` [Tomatidine, tomatidine], which “emergence of resistant CFU” value (combination of tomatidine (8 μg/ml) and gentamicin, FIG. 10) is on record?
A: significantly reduced the emergence

Q: What about the “number of CFU recovered” value (cultures exposed to gentamicin 0.5 to 4 μg/ml for 24 h, with 8 μg/ml tomatidine, FIG. 10) of the same compound?
A: significantly decrease

Q: What about the “regrowth of bacteria exposed to gentamicin or tobramycin” value (tomatidine at 8 μg/ml with aminoglycoside 1 μg/ml, 24 h, FIG. 9) of the same compound?
A: markedly reduced the regrowth
